What was measured:
Settings in all cases: banded MIC grade
[1] = tested on: Aspergillus flavus; assay: Minimum inhibitory concentration, YAG medium; format: cell-based
Outline: (§1)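 Twofold aqueous dilution series, prepared from a DMSO stock (5 mg/mL), were inoculated with Aspergillus spp. spores; incubation lasted 24 hrs at 35° C before OD 485 nm readings.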

[2] = tested on: Aspergillus niger; assay: Minimum inhibitory concentration, YAG medium; format: cell-based
Outline: as §1

[3] = tested on: Aspergillus terreus; assay: Minimum inhibitory concentration, YAG medium; format: cell-based
Outline: as §1

[4] = tested on: A. fumigatus 210; assay: Minimum inhibitory concentration, YAG medium; format: cell-based, Aspergillus fumigatus
Outline: (§2)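 MICs (mg/L) reflect >70% inhibition of OD485 growth versus untreated control after 24 hrs at 35° C in YAG medium, spore inoculum 1-2×10^4 cfu/mL, drug range 50-0.05 mg/L.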

[5] = tested on: A. terreus 49; assay: Minimum inhibitory concentration, YAG medium; format: cell-based, Aspergillus terreus
Outline: as §1

[6] = tested on: C. albicans; assay: Minimum inhibitory concentration, RPMI medium; format: cell-based
Outline: (§3)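 Incubated at 35° C for 24-48 hrs in RPMI 1640 with twofold water dilutions of compound (from 5 mg/mL stock in DMSO); absorbance at 485 nm indicated growth.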

[7] = tested on: C. tropicalis; assay: Minimum inhibitory concentration, RPMI medium; format: cell-based
Outline: as §3

[8] = tested on: C. parapsilosis; assay: Minimum inhibitory concentration, RPMI medium; format: cell-based
Outline: as §3

[9] = tested on: Aspergillus fumigatus; assay: Minimum inhibitory concentration, YAG medium; format: cell-based
Outline: as §2

Compound | MIC grade, A. FLAVUS, YAG media [1] | MIC grade, A. NIGER, YAG media [2] | MIC grade, A. TERREUS, YAG media [3] | MIC grade, A. FUMIGATUS 210, YAG media [4] | MIC grade, A. TERREUS 49, YAG media [5] | MIC grade, C. ALBICANS, RPMI media [6] | MIC grade, C. TROPICALIS, RPMI media [7] | MIC grade, C. PARAPSILOSIS, RPMI media [8] | MIC grade, A. FUMIGATUS, YAG media [9]
COc1ccc(CCCOCCC2=NN=C(N)SC2)cc1 | 2 (2: 1-5 mg/L) | 2 (2: 1-5 mg/L) | 2 (2: 1-5 mg/L) | 2 (2: 1-5 mg/L) | 2 (2: 1-5 mg/L) | 2 (2: 5-20 mg/L) | 2 (2: 5-20 mg/L) | 3 (3: 1-5 mg/L) | 2 (2: 1-5 mg/L)
NC1=NN=C(CCOCCCc2ccccc2)CS1 | 4 (4: <0.2 mg/L) | 4 (4: <0.2 mg/L) | 4 (4: <0.2 mg/L) | 4 (4: <0.2 mg/L) | 4 (4: <0.2 mg/L) | 4 (4: <1 mg/L) | 3 (3: 1-5 mg/L) | 4 (4: <1 mg/L) | 4 (4: <0.2 mg/L)
COCCCCOCCC1=NN=C(N)SC1 | 3 (3: 0.2-1 mg/L) | 3 (3: 0.2-1 mg/L) | 3 (3: 0.2-1 mg/L) | 3 (3: 0.2-1 mg/L) | 3 (3: 0.2-1 mg/L) | 3 (3: 1-5 mg/L) | 2 (2: 5-20 mg/L) | 3 (3: 1-5 mg/L) | 3 (3: 0.2-1 mg/L)
CCCCCOc1ccc(CCC2=NN=C(N)SC2)cc1 | 3 (3: 0.2-1 mg/L) | 3 (3: 0.2-1 mg/L) | 2 (2: 1-5 mg/L) | 1 (1: ≥5 mg/L) | 3 (3: 0.2-1 mg/L) | 1 (1: ≥20 mg/L) | 3 (3: 1-5 mg/L) | 3 (3: 1-5 mg/L) | 1 (1: ≥5 mg/L)
CCCCc1ccc(COCCC2=NN=C(N)SC2)cc1 | 3 (3: 0.2-1 mg/L) | 3 (3: 0.2-1 mg/L) | 3 (3: 0.2-1 mg/L) | 1 (1: ≥5 mg/L) | 2 (2: 1-5 mg/L) | 2 (2: 5-20 mg/L) | 2 (2: 5-20 mg/L) | 2 (2: 5-20 mg/L) | 1 (1: ≥5 mg/L)
COCCC1=NN=C(N)SC1 | 3 (3: 0.2-1 mg/L) | 3 (3: 0.2-1 mg/L) | 3 (3: 0.2-1 mg/L) | 2 (2: 1-5 mg/L) | 3 (3: 0.2-1 mg/L) | 1 (1: ≥20 mg/L) | 1 (1: ≥20 mg/L) | 2 (2: 5-20 mg/L) | 3 (3: 0.2-1 mg/L)
NC1=NN=C(c2cccc(Cl)c2)CS1 | 1 (1: ≥5 mg/L) | 1 (1: ≥5 mg/L) | 1 (1: ≥5 mg/L) | 1 (1: ≥5 mg/L) | 1 (1: ≥5 mg/L) | 1 (1: ≥20 mg/L) | 1 (1: ≥20 mg/L) | 1 (1: ≥20 mg/L) | 1 (1: ≥5 mg/L)
COc1cccc(C2=NN=C(N)SC2)c1 | 1 (1: ≥5 mg/L) | 1 (1: ≥5 mg/L) | 1 (1: ≥5 mg/L) | 1 (1: ≥5 mg/L) | 1 (1: ≥5 mg/L) | 1 (1: ≥20 mg/L) | 1 (1: ≥20 mg/L) | 1 (1: ≥20 mg/L) | 1 (1: ≥5 mg/L)

Reference: patent US20180201592A1, “2-AMINO-1,3,4-THIADIAZINE AND 2-AMINO-1,3,4-OXADIAZINE BASED ANTIFUNGAL AGENTS” (F2G Limited, priority 2015, published 2018)
